From article PMC12090182, “Repurposing of the RIPK1-Selective Benzo[1,4]oxazepin-4-one Scaffold for the Development of a Type III LIMK1/2 Inhibitor” (ACS Chemical Biology, 2025)

Tests used:
Experiment in all cases: scanMAX KINOMEscan (Eurofins)
Assay type in all cases: binding
ASK1 = ASK1 (Homo sapiens, UniProt Q99683); conditions: read-out: Percent Control
Source text: (§1) Supplement cb5c00097_si_002.xlsx, sheet "Table S6 (Eurofins Selectivity)" | column: Percent Control

CAMK1D = CAMK1D (Homo sapiens, UniProt Q8IU85); conditions: read-out: Percent Control
Sequence of CAMK1D (Q8IU85 whole entry): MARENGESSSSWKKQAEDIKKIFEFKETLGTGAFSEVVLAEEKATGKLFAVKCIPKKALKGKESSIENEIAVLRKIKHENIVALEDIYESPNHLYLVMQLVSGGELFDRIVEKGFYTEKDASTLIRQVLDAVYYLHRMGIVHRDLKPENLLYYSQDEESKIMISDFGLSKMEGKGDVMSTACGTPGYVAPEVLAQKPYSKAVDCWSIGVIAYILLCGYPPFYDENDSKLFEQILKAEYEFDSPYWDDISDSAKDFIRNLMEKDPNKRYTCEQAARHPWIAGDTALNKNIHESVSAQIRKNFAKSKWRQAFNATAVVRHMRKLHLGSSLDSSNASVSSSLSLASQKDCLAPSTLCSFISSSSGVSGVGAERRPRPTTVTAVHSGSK
Source text: as §1

p38-beta = p38-beta (Homo sapiens, UniProt Q15759); conditions: 1000 nM, read-out: Percent Control
Source text: as §1

EPHA7 = EPHA7 (Homo sapiens, UniProt Q15375); conditions: read-out: Percent Control
Source text: as §1

NEK9 = NEK9 (Homo sapiens, UniProt Q8TD19); conditions: 1000 nM, read-out: Percent Control
Source text: as §1

MARK4 = MARK4 (Homo sapiens, UniProt Q96L34); conditions: compound concentration 100 nM; Entrez MARK4; read-out: Percent Control
Source text: as §1

CAMK2B = CAMK2B (Homo sapiens, UniProt Q13554); conditions: 1000 nM, read-out: Percent Control
Source text: as §1

PIKFYVE = PIKFYVE (Homo sapiens, UniProt Q9Y2I7); conditions: compound concentration 100 nM; Entrez PIKFYVE; read-out: Percent Control
Source text: as §1

IKK-beta = IKK-beta (Homo sapiens, UniProt O14920); conditions: read-out: Percent Control
Sequence of IKK-beta (O14920 whole entry): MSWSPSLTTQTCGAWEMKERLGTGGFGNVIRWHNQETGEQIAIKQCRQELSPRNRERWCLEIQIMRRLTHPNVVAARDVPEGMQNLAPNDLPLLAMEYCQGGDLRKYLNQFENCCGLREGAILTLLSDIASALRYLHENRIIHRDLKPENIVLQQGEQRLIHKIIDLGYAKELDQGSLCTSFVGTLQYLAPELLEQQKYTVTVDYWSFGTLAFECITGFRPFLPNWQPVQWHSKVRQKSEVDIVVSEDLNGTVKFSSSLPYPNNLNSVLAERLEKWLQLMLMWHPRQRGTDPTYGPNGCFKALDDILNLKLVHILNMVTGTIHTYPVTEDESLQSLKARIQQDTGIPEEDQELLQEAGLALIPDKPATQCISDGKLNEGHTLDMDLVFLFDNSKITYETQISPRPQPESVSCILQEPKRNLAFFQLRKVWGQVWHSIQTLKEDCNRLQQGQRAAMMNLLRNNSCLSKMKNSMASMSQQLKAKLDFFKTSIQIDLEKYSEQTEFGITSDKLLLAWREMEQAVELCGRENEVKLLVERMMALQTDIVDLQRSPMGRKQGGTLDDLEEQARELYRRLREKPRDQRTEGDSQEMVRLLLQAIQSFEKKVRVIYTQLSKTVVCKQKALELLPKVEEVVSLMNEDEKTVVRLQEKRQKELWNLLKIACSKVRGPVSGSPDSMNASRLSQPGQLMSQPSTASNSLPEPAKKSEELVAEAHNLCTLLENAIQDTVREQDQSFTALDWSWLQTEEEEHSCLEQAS
Source text: as §1

FER = FER (Homo sapiens, UniProt P16591); conditions: 1000 nM, read-out: Percent Control
Source text: as §1

DCAMKL2 = DCAMKL2 (Homo sapiens, UniProt Q8N568); conditions: 1000 nM, read-out: Percent Control
Source text: as §1

ERBB2 = ERBB2 (Homo sapiens, UniProt P04626); conditions: read-out: Percent Control
Source text: as §1

TAOK3 = TAOK3 (Homo sapiens, UniProt Q9H2K8); conditions: 1000 nM, read-out: Percent Control
Source text: as §1

ACVR2B = ACVR2B (Homo sapiens, UniProt Q13705); conditions: 1000 nM, read-out: Percent Control
Source text: as §1

IKK-epsilon = IKK-epsilon (Homo sapiens, UniProt Q14164); conditions: 1000 nM, read-out: Percent Control
Source text: as §1

SRPK1 = SRPK1 (Homo sapiens, UniProt Q96SB4); conditions: 1000 nM, read-out: Percent Control
Source text: as §1

MLCK = MLCK (Homo sapiens, UniProt Q32MK0); conditions: 1000 nM, read-out: Percent Control
Source text: as §1

CDK3 = CDK3 (Homo sapiens, UniProt Q00526); conditions: 1000 nM, read-out: Percent Control
Source text: as §1

CASK = CASK (Homo sapiens, UniProt O14936); conditions: read-out: Percent Control
Sequence of CASK (O14936 whole entry): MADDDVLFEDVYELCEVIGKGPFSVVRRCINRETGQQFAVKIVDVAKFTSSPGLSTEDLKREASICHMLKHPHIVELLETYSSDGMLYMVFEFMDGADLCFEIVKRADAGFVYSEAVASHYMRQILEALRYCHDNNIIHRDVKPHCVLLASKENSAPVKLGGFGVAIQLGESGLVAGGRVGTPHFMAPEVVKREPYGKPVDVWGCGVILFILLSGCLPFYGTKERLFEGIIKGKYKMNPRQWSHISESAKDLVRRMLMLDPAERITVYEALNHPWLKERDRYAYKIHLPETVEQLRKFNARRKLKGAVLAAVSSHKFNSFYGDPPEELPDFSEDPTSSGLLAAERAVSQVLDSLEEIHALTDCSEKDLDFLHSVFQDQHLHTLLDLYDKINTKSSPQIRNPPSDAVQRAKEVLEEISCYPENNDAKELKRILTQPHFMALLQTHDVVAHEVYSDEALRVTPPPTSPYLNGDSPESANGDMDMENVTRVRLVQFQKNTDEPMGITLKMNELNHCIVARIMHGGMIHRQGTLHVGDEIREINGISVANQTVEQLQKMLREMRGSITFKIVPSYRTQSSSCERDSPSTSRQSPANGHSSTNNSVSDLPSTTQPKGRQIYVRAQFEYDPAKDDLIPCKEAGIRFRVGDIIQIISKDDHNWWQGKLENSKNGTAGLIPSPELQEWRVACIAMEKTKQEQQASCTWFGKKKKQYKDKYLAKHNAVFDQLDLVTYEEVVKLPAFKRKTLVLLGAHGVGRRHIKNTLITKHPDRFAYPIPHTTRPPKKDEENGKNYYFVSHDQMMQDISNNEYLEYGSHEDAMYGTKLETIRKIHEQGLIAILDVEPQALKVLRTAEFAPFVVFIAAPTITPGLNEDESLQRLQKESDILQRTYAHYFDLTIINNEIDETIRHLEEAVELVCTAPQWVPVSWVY
Source text: as §1

MEK3 = MEK3 (Homo sapiens, UniProt P46734); conditions: 1000 nM, read-out: Percent Control
Source text: as §1

S6K1 = S6K1 (Homo sapiens, UniProt P23443); conditions: compound concentration 100 nM; Entrez RPS6KB1; read-out: Percent Control
Source text: as §1

DYRK1B = DYRK1B (Homo sapiens, UniProt Q9Y463); conditions: read-out: Percent Control
Sequence of DYRK1B (Q9Y463 whole entry): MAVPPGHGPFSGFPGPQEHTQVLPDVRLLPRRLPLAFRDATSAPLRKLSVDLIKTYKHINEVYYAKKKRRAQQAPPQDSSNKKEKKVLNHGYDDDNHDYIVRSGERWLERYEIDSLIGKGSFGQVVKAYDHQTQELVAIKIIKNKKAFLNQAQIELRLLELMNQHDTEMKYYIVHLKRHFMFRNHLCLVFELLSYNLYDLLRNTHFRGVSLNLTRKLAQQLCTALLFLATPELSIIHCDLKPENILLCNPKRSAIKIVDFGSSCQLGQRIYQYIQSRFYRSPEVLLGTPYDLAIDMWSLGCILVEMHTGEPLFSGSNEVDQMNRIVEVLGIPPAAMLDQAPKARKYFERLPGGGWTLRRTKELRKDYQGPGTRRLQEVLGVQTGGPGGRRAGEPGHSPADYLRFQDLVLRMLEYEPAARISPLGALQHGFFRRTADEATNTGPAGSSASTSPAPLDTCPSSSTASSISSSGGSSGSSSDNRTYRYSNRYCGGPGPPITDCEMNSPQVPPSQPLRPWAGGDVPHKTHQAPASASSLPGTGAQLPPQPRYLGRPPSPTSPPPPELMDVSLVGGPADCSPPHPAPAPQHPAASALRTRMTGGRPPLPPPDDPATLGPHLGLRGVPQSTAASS
Source text: as §1

TAK1 = TAK1 (Homo sapiens, UniProt O43318); conditions: 1000 nM, read-out: Percent Control
Source text: as §1

EPHB6 = EPHB6 (Homo sapiens, UniProt O15197); conditions: 1000 nM, read-out: Percent Control
Source text: as §1

PIK3C2G = PIK3C2G (Homo sapiens, UniProt O75747); conditions: 1000 nM, read-out: Percent Control
Source text: as §1

BRSK1 = BRSK1 (Homo sapiens, UniProt Q8TDC3); conditions: 1000 nM, read-out: Percent Control
Source text: as §1

ERK2 = ERK2 (Homo sapiens, UniProt P28482); conditions: 1000 nM, read-out: Percent Control
Sequence of ERK2 (P28482 whole entry): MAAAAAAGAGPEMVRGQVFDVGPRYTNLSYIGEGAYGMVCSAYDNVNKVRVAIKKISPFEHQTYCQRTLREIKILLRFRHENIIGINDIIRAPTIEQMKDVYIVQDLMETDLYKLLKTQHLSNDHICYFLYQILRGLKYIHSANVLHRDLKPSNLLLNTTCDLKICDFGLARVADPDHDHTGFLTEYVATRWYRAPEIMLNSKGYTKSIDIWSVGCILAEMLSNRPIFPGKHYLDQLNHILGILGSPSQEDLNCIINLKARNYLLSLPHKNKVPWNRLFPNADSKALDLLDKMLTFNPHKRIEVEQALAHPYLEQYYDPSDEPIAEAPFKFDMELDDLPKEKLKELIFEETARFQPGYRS
Source text: as §1

IRAK3 = IRAK3 (Homo sapiens, UniProt Q9Y616); conditions: read-out: Percent Control
Sequence of IRAK3 (Q9Y616 whole entry): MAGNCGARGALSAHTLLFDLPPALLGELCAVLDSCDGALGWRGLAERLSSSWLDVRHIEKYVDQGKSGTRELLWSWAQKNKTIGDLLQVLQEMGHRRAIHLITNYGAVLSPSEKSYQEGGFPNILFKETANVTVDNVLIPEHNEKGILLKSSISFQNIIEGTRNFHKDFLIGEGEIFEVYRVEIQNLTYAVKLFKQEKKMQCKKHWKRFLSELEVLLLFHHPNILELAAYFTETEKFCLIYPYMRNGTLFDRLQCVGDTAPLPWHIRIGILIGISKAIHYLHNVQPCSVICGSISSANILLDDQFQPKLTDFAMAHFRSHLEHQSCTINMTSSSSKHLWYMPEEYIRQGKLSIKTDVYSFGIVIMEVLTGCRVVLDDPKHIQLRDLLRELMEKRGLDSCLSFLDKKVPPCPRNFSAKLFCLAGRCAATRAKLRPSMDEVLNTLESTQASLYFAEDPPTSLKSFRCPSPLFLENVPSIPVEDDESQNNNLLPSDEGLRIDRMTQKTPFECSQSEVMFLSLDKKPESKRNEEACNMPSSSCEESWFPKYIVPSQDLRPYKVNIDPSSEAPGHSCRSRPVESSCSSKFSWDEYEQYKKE
Source text: as §1

CAMK2D = CAMK2D (Homo sapiens, UniProt Q13557); conditions: 1000 nM, read-out: Percent Control
Source text: as §1

CSK = CSK (Homo sapiens, UniProt P41240); conditions: 1000 nM, read-out: Percent Control
Source text: as §1

SYK = SYK (Homo sapiens, UniProt P43405); conditions: 1000 nM, read-out: Percent Control
Source text: as §1

LKB1 = LKB1 (Homo sapiens, UniProt Q15831); conditions: 1000 nM, read-out: Percent Control
Source text: as §1

TNK2 = TNK2 (Homo sapiens, UniProt Q07912); conditions: read-out: Percent Control
Source text: as §1

HUNK = HUNK (Homo sapiens, UniProt P57058); conditions: read-out: Percent Control
Source text: as §1

EPHB4 = EPHB4 (Homo sapiens, UniProt P54760); conditions: 1000 nM, read-out: Percent Control
Source text: as §1

ACVR1 = ACVR1 (Homo sapiens, UniProt Q04771); conditions: 1000 nM, read-out: Percent Control
Source text: as §1

CSNK1A1L = CSNK1A1L (Homo sapiens, UniProt Q8N752); conditions: 1000 nM, read-out: Percent Control
Source text: as §1

JNK3 = JNK3 (Homo sapiens, UniProt P53779); conditions: 1000 nM, read-out: Percent Control
Source text: as §1

Sequence of ASK1 (Q99683 whole entry): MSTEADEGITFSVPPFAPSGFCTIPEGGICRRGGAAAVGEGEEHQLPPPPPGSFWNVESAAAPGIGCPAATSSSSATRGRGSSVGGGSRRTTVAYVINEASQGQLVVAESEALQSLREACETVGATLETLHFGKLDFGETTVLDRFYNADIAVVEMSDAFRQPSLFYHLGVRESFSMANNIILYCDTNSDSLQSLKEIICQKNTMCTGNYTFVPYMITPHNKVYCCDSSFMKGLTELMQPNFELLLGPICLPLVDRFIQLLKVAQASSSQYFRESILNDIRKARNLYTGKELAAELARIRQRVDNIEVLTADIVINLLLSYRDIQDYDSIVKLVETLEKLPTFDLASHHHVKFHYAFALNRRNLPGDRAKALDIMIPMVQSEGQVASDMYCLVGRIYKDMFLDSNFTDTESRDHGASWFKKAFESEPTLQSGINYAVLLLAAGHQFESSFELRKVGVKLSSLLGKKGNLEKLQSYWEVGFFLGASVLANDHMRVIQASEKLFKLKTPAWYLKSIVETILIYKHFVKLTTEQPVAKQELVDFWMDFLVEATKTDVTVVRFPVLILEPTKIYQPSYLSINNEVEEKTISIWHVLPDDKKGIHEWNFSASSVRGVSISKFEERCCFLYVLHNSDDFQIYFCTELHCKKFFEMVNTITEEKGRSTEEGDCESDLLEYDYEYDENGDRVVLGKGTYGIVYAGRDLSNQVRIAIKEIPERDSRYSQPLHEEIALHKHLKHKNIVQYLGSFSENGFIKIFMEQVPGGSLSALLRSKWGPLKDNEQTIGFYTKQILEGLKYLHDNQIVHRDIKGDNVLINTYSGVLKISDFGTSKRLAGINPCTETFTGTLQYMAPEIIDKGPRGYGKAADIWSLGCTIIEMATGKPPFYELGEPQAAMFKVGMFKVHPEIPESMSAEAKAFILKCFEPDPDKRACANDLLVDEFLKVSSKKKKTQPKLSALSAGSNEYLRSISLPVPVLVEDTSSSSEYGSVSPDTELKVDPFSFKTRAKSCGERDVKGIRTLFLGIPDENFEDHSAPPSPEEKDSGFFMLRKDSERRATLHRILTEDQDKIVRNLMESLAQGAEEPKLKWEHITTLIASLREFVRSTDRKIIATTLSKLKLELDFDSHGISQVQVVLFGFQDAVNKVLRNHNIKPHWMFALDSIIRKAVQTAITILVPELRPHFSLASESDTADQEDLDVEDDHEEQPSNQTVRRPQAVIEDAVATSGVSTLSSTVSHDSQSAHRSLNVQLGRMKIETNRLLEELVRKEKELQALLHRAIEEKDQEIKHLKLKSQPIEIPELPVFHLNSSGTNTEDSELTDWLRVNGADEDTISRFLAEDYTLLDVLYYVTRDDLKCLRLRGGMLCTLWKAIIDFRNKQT

In the case of `CN1C(=O)[C@@H](N2CCc3c(nn(Cc4ccccc4)c3C(N)=O)C2=O)COc2cc(Cl)ccc21` [Compound 10, (S)-2-benzyl-6-(8-chloro-5-methyl-4-oxo-2,3,4,5-tetrahydrobenzo[b][1,4]oxazepin-3-yl)-7-oxo-4,5,6,7-tetrahydro-2H-pyrazolo[3,4-c]pyridine-3-carboxamide], the remaining binding at 1 µM (ASK1; 1000 nM) is reported as 100%, the remaining binding at 0.1 µM (ASK1; compound concentration 100 nM, Entrez MAP3K5) is reported as 91% and the remaining binding at 1 µM (CAMK1D; 1000 nM) is reported as 100%. The remaining binding at 0.1 µM (CAMK1D; compound concentration 100 nM, Entrez CAMK1D) was 92%, the remaining binding at 1 µM (p38-beta) was 97% and the remaining binding at 1 µM (EPHA7; 1000 nM) was 100%. It also gave a remaining binding at 0.1 µM (EPHA7; compound concentration 100 nM, Entrez EPHA7) of 91%, a remaining binding at 1 µM (NEK9) of 92% and a remaining binding at 0.1 µM (MARK4) of 76%. For the same compound, the remaining binding at 1 µM (CAMK2B) was 80%, the remaining binding at 0.1 µM (PIKFYVE) was 98% and the remaining binding at 1 µM (IKK-beta; 1000 nM) was 100%. For the same compound, the remaining binding at 0.1 µM (IKK-beta; compound concentration 100 nM, Entrez IKBKB) was 97%, the remaining binding at 1 µM (FER) was 90% and the remaining binding at 1 µM (DCAMKL2) was 83%. The remaining binding at 1 µM (ERBB2; 1000 nM) was 100%, the remaining binding at 0.1 µM (ERBB2; compound concentration 100 nM, Entrez ERBB2) was 100% and the remaining binding at 1 µM (TAOK3) was 96%. The remaining binding at 1 µM (ACVR2B) was 94%, the remaining binding at 1 µM (IKK-epsilon) was 75% and the remaining binding at 1 µM (SRPK1) was 88%. The remaining binding at 1 µM (MLCK) was 93%, the remaining binding at 1 µM (CDK3) was 87% and the remaining binding at 1 µM (CASK; 1000 nM) was 100%. The remaining binding at 0.1 µM (CASK; compound concentration 100 nM, Entrez CASK) was 80%, the remaining binding at 1 µM (MEK3) was 97% and the remaining binding at 0.1 µM (S6K1) was 76%. It also gave a remaining binding at 1 µM (DYRK1B; 1000 nM) of 100%, a remaining binding at 0.1 µM (DYRK1B; compound concentration 100 nM, Entrez DYRK1B) of 100% and a remaining binding at 1 µM (TAK1) of 82%. For the same compound, the remaining binding at 1 µM (EPHB6) was 94%, the remaining binding at 1 µM (PIK3C2G) was 84% and the remaining binding at 1 µM (BRSK1) was 85%. It also gave a remaining binding at 1 µM (ERK2) of 95%, a remaining binding at 1 µM (IRAK3; 1000 nM) of 100% and a remaining binding at 0.1 µM (IRAK3; compound concentration 100 nM, Entrez IRAK3) of 95%. The remaining binding at 1 µM (CAMK2D) was 89%, the remaining binding at 1 µM (CSK) was 97% and the remaining binding at 1 µM (SYK) was 95%. The remaining binding at 1 µM (LKB1) was 88%, the remaining binding at 1 µM (TNK2; 1000 nM) was 98% and the remaining binding at 0.1 µM (TNK2; compound concentration 100 nM, Entrez TNK2) was 89%. For the same compound, the remaining binding at 1 µM (HUNK; 1000 nM) was 100%, the remaining binding at 0.1 µM (HUNK; compound concentration 100 nM, Entrez HUNK) was 82% and the remaining binding at 1 µM (EPHB4) was 94%. The remaining binding at 1 µM (ACVR1) was 91%, the remaining binding at 1 µM (CSNK1A1L) was 85% and the remaining binding at 1 µM (JNK3) was 95%.
